Several values for one entry are separate records, joined by “and”; a condition that tells them apart may be missing. Identical values can stand only once.
Assays:
A549 = assay: MTT cell viability assay, A549; type: cell-based, Human; conditions: 48 hours
Procedure: (§1) Human NSCLC cell lines A549, H1437, H2087, H522, and HCC827 were obtained from the Korean Cell Line Bank (KCLB, Seoul, Korea). These cells were cultured in RPMI-1640 medium (Gibco, N.Y., USA) supplemented with 10% FBS (Gibco) and 1% penicillin-streptomycin (HyClone Laboratories, Logan, Utah, USA). All cell lines were cultured under standard conditions (5% CO2, humid environment, 37° C.). A549 cells were seeded at a density of 1×10^4 cells/well and H1437, H2087, H522, HCC827, and MRCS cells at a density of 2×10^4 cells/well in 96-well plates and were cultured until cells reach approximately 70-80% confluency. The NSCLC cells were treated with plant hormones for 48 hours. Stock solution of each plant hormone was diluted with culture medium, wherein concentrations of DMSO, water, methanol, and ethanol in the culture medium were below 1% (v/v). The half-maximal inhibitory concentration (IC50) was calculated using CompuSyn software (ComboSyn Inc., Paramus, N.J., USA).
(§2) The inhibitory effect of plant hormones and their derivatives was investigated on 5 NSCLC cell lines (A549, H1437, H2087, H522, and HCC827). The NSCLC cells were treated with ABA, Cor, ethephon, GR-24, IAA, KR, MJ, N6b, N6i, oTR, and SS-HCS at concentrations of 0.1, 0.5, 1, 5, 10, 50, and 100 μM. Cell viability and IC50 values for 48 hours were investigated by performing the MTT assay.

H1437 = assay: MTT cell viability assay, H1437; type: cell-based, Human; conditions: 48 hours
Procedure: as §1, §2

H2087 = assay: MTT cell viability assay, H2087; type: cell-based, Human; conditions: 48 hours
Procedure: as §1, §2

H522 = assay: MTT cell viability assay, H522; type: cell-based, Human; conditions: 48 hours
Procedure: as §1, §2

A549 cells [1] = assay: Glycolytic function analysis (Seahorse XFe24, glycoPER); type: cell-based, Human; conditions: oTR 5, 10, and 50 μM, 48 hours, FIG. 5A
Procedure: (§3) Mitochondrial and glycolytic functions were assessed using Seahorse XFe24 analyzer (Agilent Technologies, Lexington, Mass., USA). A549 cells were seeded in a cell culture plate at a density of 1.5×10^4 cells/well. Cells were treated with oTR (5, 10, and 50 μM) for 48 hours after achieving approximately 70-80% confluency. The glycolytic and mitochondrial functions were determined by measuring the proton efflux rate (PER) and oxygen consumption rate (OCR), respectively. Glycolytic PER (glycoPER) was obtained by subtracting mitochondria-derived protons from the total PER. The analyses were conducted according to the manufacturer's instructions.
To investigate real-time changes in cellular metabolic functions, glycoPER (pmol H+/min) and OCR were analyzed (FIG. 5). GlycoPER reflects glycolytic functions, and OCR reflects mitochondrial respiration. […] Measurement of compensatory glycolysis was achieved by blocking oxidative phosphorylation using rotenone/antimycin.

A549 cells [2] = assay: Mitochondrial function analysis (Seahorse XFe24, OCR); type: cell-based, Human
Procedure: as §3
To measure ATP production, oligomycin, an ATPase inhibitor, was added to the cells to inhibit mitochondria-derived ATP synthesis. Then, when carbonyl cyanide-4-(trifluoromethoxy)phenylhydrazone (FCCP), a mitochondrial oxidative phosphorylation uncoupler, was added to the cells, the OCR reached the maximal level, indicating maximal mitochondrial respiration. Spare respiratory capacity (SRC) indicates the amount of extra ATP produced by oxidative phosphorylation when energy demand of the cells increases suddenly. […] To determine the mitochondrial fuel source (glucose, glutamine, and fatty acid) that was better utilized in NSCLC cells, investigation was performed on the OCR of each fuel source in the absence and presence of each inhibitor. UK5099 (for glucose), BPTES (for glutamine), and etomoxir (for fatty acid).

A549 cells [3] = assay: Measurement of H2O2 content; type: cell-based, Human; conditions: oTR 5, 10, and 50 μM, 48 hours, dose-dependent
Procedure: A549 cells were seeded at a density of 2×10^5 cells/mL in a 6-well plate and treated with oTR (5, 10, and 50 μM) or an equal volume of DMSO (control) for 48 hours. H2O2 content was measured according to a previously described method with some modifications added. Briefly, the cell pellets were extracted with 1 mL of 0.1% TCAA, and the extracts were homogenized and centrifuged at 15,000×g at 4° C. for 10 minutes. Potassium phosphate buffer (10 mM; 0.5 mL) and 1 M KI (1 mL) were added to 0.5 mL of the supernatant. The mixture was then incubated for 15 minutes at room temperature in the dark and measured at 390 nm. For normalization, protein concentration was determined using Bio-Rad protein assay kit with BSA as a standard.

A549 cells [4] = assay: BrdU cell proliferation assay; type: cell-based, Human
Procedure: The siRNA sequences for ERK1/2 (5′-CCCUGACCCGUCUAAUA-3′ SEQ ID NO: 1), AKT (5′-GAAGGAAGU CAUCGUGCCCAA-3′ SEQ ID NO: 2), and scrambled siRNA (SN-1001-CFG) were purchased from Bioneer (Daejeon, Korea). Cells were transfected with siRNA using Lipofectamine 3000 (Invitrogen, Carlsbad, Calif., USA) according to the manufacturer's instructions.
The 5-bromo-2-deoxyuridine (BrdU) cell proliferation assay was performed according to a previously described method. A549 cells (1×10^4) were grown to approximately 70-80% confluency in 96-well plates and treated with oTR (5, 10, and 50 μM) for 48 hours in the presence or absence of U0126, wortmannin, siERK1/2, and siAKT. Cell proliferation was measured using the Cell Proliferation ELISA, BrdU (colorimetric) kit (Roche Diagnostics, Penzberg, Germany), according to the manufacturer's instructions.

A549 cells [5] = assay: Annexin V-FITC/propidium iodide flow cytometric apoptosis analysis; type: cell-based, Human; conditions: 48 hours
Procedure: To detect apoptotic cells, flow cytometric analysis was performed using Annexin V-FITC/propidium iodide double staining of NSCLC cells. A549 cells (4×10^5) were grown to approximately 70-80% confluency in 60 mm dish and treated with oTR (5, 10, and 50 μM) for 48 hours. The cells were stained using the FITC Annexin V Apoptosis Detection Kit (556547, BD Biosciences, Franklin Lakes, N.J., USA) as previously described.

[6] = doses of 100 mg/kg or 150 mg/kg, previous study; cited from earlier work

Which IC50 (A549) does the source give for `OC[C@H]1O[C@@H](n2cnc3c(NCc4ccccc4O)ncnc32)[C@H](O)[C@@H]1O` [oTR, ortho topolin riboside] here?
Its IC50 is 34.3 ± 4.4 µM.

And the IC50 (H1437)?
Its IC50 is 50 ± 6.55 µM.

What about the IC50 (H2087) of the same compound?
Its IC50 is 51.4 µM and 26.1 µM.

What about the IC50 (H522) of the same compound?
The IC50 was 26.1 ± 2.47 µM.

What about the “basal and compensatory glycolytic rates (glycoPER)” value (A549 cells [1]) of the same compound?
The value was “significant decrease”.

What about the “glucose oxidation (mitochondrial fuel capacity)” value (A549 cells [2]; oTR 10 μM, FIG. 5C) of the same compound?
The value was “did not differ”.

What about the “glutamine and fatty acid oxidations (mitochondrial fuel capacity)” value (A549 cells [2]; oTR 10 μM, FIG. 5C) of the same compound?
The value was “significantly reduced”.

What about the “OCR (oxygen consumption rate)” value (A549 cells [2]; oTR 5, 10, and 50 μM, 48 hours, FIG. 5B) of the same compound?
The value was “reduced”.

What about the “basal OCR, ATP production, and SRC” value (A549 cells [2]; oTR-treated vs untreated A549 cells) of the same compound?
Its value is “Significant reduction”.

What about the H2O2 content (A549 cells [3]) of the same compound?
The H2O2 content was “significantly increased”.

And the “antiproliferative effect of oTR in presence of ERK inhibitors (U0126) or AKT inhibitors (wortmannin)” value (A549 cells [4]; U0126 (20 μM) or wortmannin (5 μM), FIG. 6D)?
Its value is “significantly weakened”.

What about the “cell proliferation (BrdU)” value (A549 cells [4]; oTR 5, 10, and 50 μM, 48 hours, dose-dependent, FIG. 6A) of the same compound?
The value was “significantly inhibited”.

And the “oTR-induced antiproliferative activity in ERK or AKT knockdown cells” value (A549 cells [4]; siERK 1/2 (200 nM) or siAKT (200 nM), FIG. 6D)?
The value was “significantly inhibited”.

What about the “increase in percentage of late apoptotic cells compared to untreated NSCLC cells” value (A549 cells [5]; 10 μM oTR) of the same compound?
Its value is 5.70±0.16%.

And the “increase in percentage of late apoptotic cells compared to untreated NSCLC cells” value (A549 cells [5]; 50 μM oTR)?
The value was 24.56±9.37%.

And the acute toxicity [6]?
Its acute toxicity is “no acute toxicity”.
